Test system: wireworm
Test: Efficacy of chemical treatments on wireworm in potatoes grown in Washington State
Assay type: in vivo
Conditions: result in words; values only in the figure
Excerpt: Experimental procedure for determining the efficacy of various chemical treatments on wire-worm in potatoes grown in Washington State, United States. Potato seed Solarium tuberosum L., ‘Russet Burbank’ was used in this experiment. Seeds were planted at a depth of 8 inches with spacing within the row at 10 inches and between rows at 34 inches. The experimental site was a 12 ft. by 20 ft. plot containing four experimental replications. [table] [table] [table]

CCOC(=O)OC1=C(c2cc(C)ccc2C)C(=O)N[C@]12CC[C@@H](OC)CC2 [spirotetramat]
percent reduction in wireworm infestation of potatoes (FIG. 3): confirm the efficacy
